Measurements published in patent US20230348437A1, “COMPOUNDS, COMPOSITIONS AND METHODS” (Denali Therapeutics Inc., priority 2020, published 2023).
Like-named read-outs stand apart in the source and are kept apart here.

Assays:
[1] = system: NLRP3 (IL-1β release from THP-1 cells); assay: IL-1β detection in IFN-γ differentiated THP-1 cells, LPS induction and ATP, 96 well format; assay type: cell-based; details: Homo sapiens, IFN-γ 25 ng/mL, LPS 50 ng/mL, ATP 5 mM, IL-1β ELISA, read-out: Activity (IC50 class)
Procedure: (§1) Compounds as provided herein were tested in the following assay. Cell culture medium employed contained RPMI 1640 medium (89%), FBS (10%), Pen/Strep (1%), and 2-mercaptoethanol (0.05 mM). Freezing medium was made up of 90% FBS and 10% DMSO. THP-1 cells were removed from the liquid nitrogen and placed into a 37° C. water bath to thaw, until signs of ice dissipated. The cells were then added to 9 mL of warm cell culture medium and centrifuged for 5 minutes at 1000 rpm. The supernatant was discarded, and the cells were resuspended in new cell culture medium. The THP-1 cells were then split and cultured in the cell culture medium, being passaged every 2-3 days (5×10^5 cells/mL passaged every two days, 3×10^5 cells/mL passaged every three days). Cell density was maintained between 5×10^5-1.5×10^6 viable cells/mL.
To freeze, cells were resuspended with fresh freezing medium, adjusting the cell density to between 3×10^6-10×10^6 cells/mL. The cell suspension was partitioned into 1 mL aliquots per vial, and the vials were transferred to a -80° C. freezer. After one day at -80° C., the cell vials were transferred to liquid nitrogen freezer for storage.
PBST solution was prepared by mixing 3600 mL of water, 400 mL of 10X PBS, and 4 mL of Tween 20. IFN-γ solution was reconstituted with 100 µL of water to obtain a 1 mg/mL solution, which was then diluted with 0.1 % BSA to provide a 100 ng/mL solution. The IFN-γ solution was stored at -20° C. LPS was reconstituted with 1 mL of PBS solution to obtain a 1 mg/mL stock solution, which was further diluted to 50 ng/mL with serum-free medium. The LPS solution was stored at 4° C.
The 96 well plates were then incubated at 37° C. under a humidified atmosphere of 5% CO2 for 24 h.
LPS induction: When IFN-γ treatment was completed, the supernatants were discarded by hand. 100 µL of a 1X solution of LPS in serum-free medium (50 ng/mL) was added. The plates were incubated in a 37° C. incubator under a humidified atmosphere of 5% CO2 for 4 h. Sample compounds were dissolved in DMSO and the compound solutions were dispensed to the wells using a Tecan D300e digital dispenser. The final concentration of DMSO for each well was 0.5%. The plates were then incubated at 37° C. under a humidified atmosphere of 5% CO2 for 1 h. 20 µL of a 6X solution of ATP was added (final concentration per well: 5 mM), and the plates incubated at 37° C. under a humidified atmosphere of 5% CO2 for 1 h. The supernatants were then collected and analyzed using an IL-Iβ detection kit. If needed, the test samples could be stored at -20° C. until analyzed.
Compound dilution: Compound solution source plates (20 µL of a 10 mM solution of each compound was delivered to the specified wells and stored in a nitrogen cabinet until tested.
Coat Elisa plate: The captured antibody (mAb Mt175) was diluted in PBS to a concentration of 2 µg/mL, and then used to coat the ELISA plate (SIGMA-P6366) overnight at 4° C.
The antibody coat was discarded and the plate was washed 4 times with PBST. The plate was blocked by adding 25 µL/well of blocking buffer (LiCor-927-40000) with 0.1% Tween 20, then incubated for 1 h at room temperature. The blocking buffer was then discarded and the plate was washed 4 times with PBST.
One hour before test sample addition, the sample plates were allowed to thaw at room temperature, centrifuged at 1000 rpm for 1 minute, and shaken for 30 seconds. 25 µL/well of the test samples were transferred to the ELISA plate, and the plate was incubated for 2 h at room temperature.
The test samples were discarded and the ELISA plate was washed 4 times with PBST. 15 µL/well of mAb7P10-biotin at 0.5 µg/mL (1:1000) in blocking buffer was then added to the ELISA plate and it was incubated for 1 h at room temperature.
The antibody was discarded and the ELISA plate was washed 4 times with PBST. Then 15 µL/well of streptavidin-HRP diluted 1:1000 in blocking buffer was added to the ELISA plate and it was allowed to incubate for 1 h at room temperature.

[2] = system: NLRP3 (IL-1β secretion from THP-1 cells); assay: IL-1β secretion assay in 384-well plates, PMA differentiated THP-1 cells, LPS and nigericin stimulation; assay type: cell-based; details: Homo sapiens
Procedure: as §1, with “Cell culture medium employed contained RPMI 1640 medium (89%), FBS (10%), Pen/Strep (1%), and 2-mercaptoethanol (0.05 mM).” left out
PMA was dissolved in DMSO to make a stock solution at 5 mg/mL and stored in 10 µl aliquots at -20° C. for single use. PMA is added to normal growth medium. LPS was diluted with 1 mL of water solution to provide a 1 mg/mL stock solution and stored in 15 µl aliquots at -20° C. for single use. Nigericin is diluted in ice cold 100% ethanol to 5 mg/mL (6.7 mM) and stored in 75 µL aliquots at -20° C. for single use. […] The two control conditions used to qualify and normalize test compound dose-response curves were as follows: High Control = 25 ng/mL LPS, 5 µM Nigericin, 0.5% DMSO, Low Control = 25 ng/mL, LPS, 0.5% DMSO.
THP-1 cells were diluted to provide a suspension at a concentration of 1.0×10^6 cells/mL with the total volume of suspension required to enable the desired number of assay plates. The growth media was supplemented with PMA (5 ng/mL final concentration) and the cells were incubated at 37° C. under a humidified atmosphere of 5% CO2 for 40 h.
All media was carefully aspirated from each culture flask. The cells were washed carefully with 1x DPBS. The cells were then briefly digested with trypsin LE for 5 minutes at 23° C. and immediately resuspended in cell growth media. After resuspension, the cells were centrifuged at 1000 rpm for 3 minutes and the supernatant was discarded. The cells were resuspended in DPBS and once again centrifuged at 1000 rpm for 5 minutes. The supernatant was discarded and the cell pellet was resuspended in serum-free media supplemented with LPS (25 ng/mL final concentration) to enable the distribution of 30 K THP-1 cells within 45 µL of media into each well of 384-well PDL-coated plates. The 384-well plates were then incubated at 37° C. under a humidified atmosphere of 5% CO2 for 2 h. Following this period, test compounds were dispensed by Tecan across the desired concentration range with all wells normalized to a final 0.5 % DMSO concentration. The plates were then incubated at 37° C. under a humidified atmosphere of 5% CO2 for 1 h. Following this period, 5 µL of the […] nigericin stock solution was added to each of the appropriate wells and plates were centrifuged at 1000 rpm for 30 seconds. The plates were the immediately reintroduced to the incubator at 37° C. under a humidified atmosphere of 5% CO2 for 2 h. After this time, 35 µL/well of supernatant was collected and transferred into v-bottom plate and centrifuged at 1000 rpm for 1 minute. These supernatant aliquots were analyzed using an IL-Iβ detection kit as described below. If needed, the test samples could be snap frozen and stored at -80° C. until analyzed.
To prepare each ELISA plate, capture antibody (mAb Mt175) was diluted with PBS to a final concentration of 2 µg/mL and then 20 µL of this solution was added to each well of the ELISA plate. Each plate was allowed to incubate overnight at 4° C. The next day, the capture antibody solution was removed and discarded. […] Each ELISA plate was then allowed to incubate for 1 hour at 23° C. After this time, the blocking buffer was removed and discarded. Each ELISA plate was washed 4 times with PBST. During this time, the v-bottomed plates containing the supernatant aliquots from the assay run were centrifuged at 300 g for 5 minutes before transferring 15 µL/well of the supernatant sample to each ELISA plate. […]

[3] = THP-1 cells, PMA 5 ng/mL, LPS 25 ng/mL, nigericin, IL-1β ELISA, 384-well, read-out: Activity

Row | Compound | IC50 [1] | IC50 [2, 3] | IC50 ([2]; THP-1, read-out: Activity (µM))
1 | CCc1nn(CC(=O)N[C@H]2C[C@@](C)(O)C2)c(=O)cc1-c1ccccc1 [Example 3, 2-(3-Ethyl-6-oxo-4-phenylpyridazin-1(6H)-yl)-N-(cis-3-hydroxy-3-methylcyclobutyl)acetamide] | < 10 µM | 6.77 µM | –
2 | CC(C)c1nn(CC(=O)N[C@H]2C[C@@](C)(O)C2)c(=O)cc1-c1ccccc1 [Example 1, N-(cis-3-hydroxy-3-methylcyclobutyl)-2-(3-isopropyl-6-oxo-4-phenylpyridazin-1(6H)-yl)acetamide] | < 10 µM | 3.32 µM | –
3 | CC(C)c1nn(CC(=O)N[C@H]2C[C@@](C)(O)C2)c(=O)cc1-c1ccc(F)cc1 [Example 10, 2-(4-(4-fluorophenyl)-3-isopropyl-6-oxopyridazin-1(6H)-yl)-N-(cis-3-hydroxy-3-methylcyclobutyl)acetamide] | 10 to 15 µM | 50 µM | –
4 | CC(C)c1nn(CC(=O)N[C@H]2C[C@@](C)(O)C2)c(=O)cc1-c1ccccn1 [Example 17] | < 10 µM | 19.5 µM | –
5 | CC(C)c1nn(CC(=O)N[C@H]2C[C@@](C)(O)C2)c(=O)cc1-c1cc(Cl)ccc1Cl [Example 16, 2-(4-(2,5-dichlorophenyl)-3-isopropyl-6-oxopyridazin-1(6H)-yl)-N-(cis-3-hydroxy-3-methylcyclobutyl)acet amide] | < 10 µM | 1.15 µM | –
6 | COc1nn(CC(=O)N[C@H]2C[C@@](C)(O)C2)c(=O)cc1-c1ccccc1 [Example 19] | < 10 µM | 21.7 µM | –
7 | CC(C)c1nn(CC(=O)N[C@H]2C[C@@](C)(O)C2)c(=O)cc1-c1cccc(Cl)c1Cl [Example 15, 2-(4-(2,3-dichlorophenyl)-3-isopropyl-6-oxopyridazin-1(6H)-yl)-N-(cis-3-hydroxy-3-methylcyclobutyl)acet amide] | < 10 µM | 3.51 µM | –
8 | CC(C)c1nn(CC(=O)N[C@H]2C[C@@](C)(O)C2)c(=O)cc1-c1cccc(Br)c1 [Example 14, 2-(4-(3-bromophenyl)-3-isopropyl-6-oxopyridazin-1(6H)-yl)-N-(cis-3-hydroxy-3-methylcyclobutyl)acetamide] | < 10 µM | 1.49 µM | –
9 | CC(C)c1nn(CC(=O)N[C@H]2C[C@@](C)(O)C2)c(=O)cc1-c1ccccc1Cl [Example 4, 2-(4-(2-Chlorophenyl)-3-isopropyl-6-oxopyridazin-1(6H)-yl)-N-(cis-3-hydroxy-3-methylcyclobutyl)acetamide] | < 10 µM | 5.91 µM | –
10 | CC(C)c1nn(CC(=O)N[C@H]2C[C@@](C)(O)C2)c(=O)cc1-c1cccc(F)c1F [Example 25, 2-[4-(2,3-difluorophenyl)-6-oxo-3-propan-2-ylpyridazin-1-yl]-N-(cis-3-hydroxy-3-methylcyclobutyl)acetamide] | – | 1.82 µM | –
11 | Cc1c(-c2cc(F)cc(F)c2)c(C(C)C)nn(CC(=O)Nc2ncncc2F)c1=O [Example 38, 2-[4-(3,5-difluorophenyl)-5-methyl-6-oxo-3-propan-2-ylpyridazin-1-yl]-N-(5-fluoropyrimidin-4-yl)acetamide] | – | 0.812 µM | –
12 | Cc1ccc(F)c(-c2cc(=O)n(CC(=O)N[C@H]3C[C@@](C)(O)C3)nc2C(C)C)c1 [Example 23, 2-[4-(2-fluoro-5-methylphenyl)-6-oxo-3-propan-2-ylpyridazin-1-yl]-N-(cis-3-hydroxy-3-methylcyclobutyl)acetamide] | – | 1.89 µM | –
13 | CCN1CCC[C@@H](NC(=O)Cn2nc(C(C)C)c(-c3cc(F)cc(F)c3F)cc2=O)C1 [Example 32, N-[(3R)-1-ethylpiperidin-3-yl]-2-[6-oxo-3-propan-2-yl-4-(2,3,5-trifluorophenyl)pyridazin-1-yl]acetamide] | – | 0.649 µM | –
14 | CC(C)c1nn(CC(=O)Nc2ncncc2F)c(=O)cc1-c1cc(F)cc(Cl)c1 [Example 46, 2-[4-(3-chloro-5-fluorophenyl)-6-oxo-3-propan-2-ylpyridazin-1-yl]-N-(5-fluoropyrimidin-4-yl)acetamide] | – | 0.637 µM | –
15 | CCc1nn(CC(=O)Nc2ncncc2F)c(=O)c(C)c1-c1cccc(F)c1 [Example 52, 2-[3-ethyl-4-(3-fluorophenyl)-5-methyl-6-oxopyridazin-1-yl]-N-(5-fluoropyrimidin-4-yl)acetamide] | – | 4.36 µM | –
16 | COc1nn(CC(=O)Nc2ncc(F)cn2)c(=O)cc1-c1cc(F)cc(F)c1 [Example 57, 2-[4-(3,5-difluorophenyl)-3-methoxy-6-oxopyridazin-1-yl]-N-(5-fluoropyrimidin-2-yl)acetamide] | – | – | 1.96 µM
